Experimental data reported in PubChem BioAssay (NCI).
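All cell lines were grown in 96-well plates and treated with compound for 48 hours. At the TGI there is no net growth.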

Columns and labels:
Assay in all cases: growth of human tumour cells (NCI), 48 h
[1] = system: 786-0 renal
[2] = system: A498 renal
[3] = system: A549 NSCLC
[4] = system: ACHN renal
[5] = system: CAKI-1 renal
[6] = system: COLO 205 colon
[7] = system: DLD-1 colon
[8] = system: DMS 114 small cell lung
[9] = system: DMS 273 small cell lung
[10] = system: EKVX NSCLC
[11] = system: HCC-2998 colon
[12] = system: HCT-116 colon
[13] = system: HCT-15 colon
[14] = system: HOP-18 NSCLC
[15] = system: HOP-62 NSCLC
[16] = system: HT29 colon
[17] = system: IGROV1 ovarian
[18] = system: K-562 leukemia
[19] = system: KM12 colon
[20] = system: KM20L2 colon
[21] = system: LOX IMVI melanoma
[22] = system: LXFL 529 NSCLC
[23] = system: M14 melanoma
[24] = system: M19-MEL melanoma
[25] = system: MOLT-4 leukemia
[26] = system: NCI-H23 lung
[27] = system: NCI-H460 lung
[28] = system: NCI-H522 lung
[29] = system: OVCAR-3 ovarian
[30] = system: OVCAR-4 ovarian
[31] = system: OVCAR-5 ovarian
[32] = system: OVCAR-8 ovarian
[33] = system: RPMI-8226 leukemia
[34] = system: RXF 393 renal
[35] = system: SF-268 CNS
[36] = system: SF-295 CNS
[37] = system: SF-539 CNS
[38] = system: SK-MEL-28 melanoma
[39] = system: SK-MEL-5 melanoma
[40] = system: SK-OV-3 ovarian
[41] = system: SN12C renal
[42] = system: SNB-19 CNS
[43] = system: SNB-75 CNS
[44] = system: SNB-78 CNS
[45] = system: SR leukemia
[46] = system: SW-620 colon
[47] = system: TK-10 renal
[48] = system: U251 CNS
[49] = system: UACC-257 melanoma
[50] = system: UACC-62 melanoma
[51] = system: UO-31 renal
[52] = system: XF 498 CNS
[53] = system: HOP-92 NSCLC
[54] = system: MALME-3M melanoma
[55] = system: CCRF-CEM leukemia
[56] = system: HL-60(TB) leukemia
[57] = system: NCI-H226 lung
[58] = system: RXF-631 renal
[59] = system: SK-MEL-2 melanoma

What does the source list for `Clc1ccc(C2=Nc3ccccc3SC(c3cccs3)C2)cc1` (stereo unspecified)?
TGI [1]: 29.8 µM; TGI [2]: 28.1 µM; TGI [3]: 36 µM; TGI [4]: 28.7 µM; TGI [5]: 31.3 µM; TGI [6]: 31.2 µM; TGI [7]: 22 µM; TGI [8]: 31.2 µM; TGI [9]: 27.1 µM; TGI [10]: 31.3 µM; TGI [11]: 30.9 µM; TGI [12]: 20 µM; TGI [13]: 27.1 µM; TGI [14]: 35 µM; TGI [15]: 39.3 µM; TGI [16]: 27.8 µM; TGI [17]: 28 µM; TGI [18]: 33.7 µM; TGI [19]: 22.5 µM; TGI [20]: 30.2 µM; TGI [21]: 19.9 µM; TGI [22]: 31.3 µM; TGI [23]: 30 µM; TGI [24]: 28.8 µM; TGI [25]: > 100 µM; TGI [26]: 27.2 µM; TGI [27]: 32 µM; TGI [28]: 32 µM; TGI [29]: 24 µM; TGI [30]: 27.2 µM; TGI [31]: 27.6 µM; TGI [32]: 30.4 µM; TGI [33]: 7.26 µM; TGI [34]: 22.7 µM; TGI [35]: 30.4 µM; TGI [36]: 28.2 µM; TGI [37]: 32 µM; TGI [38]: 31.8 µM; TGI [39]: 30.2 µM; TGI [40]: 30.5 µM; TGI [41]: 29.3 µM; TGI [42]: 30.3 µM; TGI [43]: 34.1 µM; TGI [44]: 85.2 µM; TGI [45]: 62.4 µM; TGI [46]: 25.8 µM; TGI [47]: 31.1 µM; TGI [48]: 24.1 µM; TGI [49]: 29.4 µM; TGI [50]: 29.1 µM; TGI [51]: 26.4 µM; TGI [52]: 29.8 µM

`O=C(/C=C/c1ccccc1F)c1ccc([N+](=O)[O-])cc1` was tested. Which TGI [1] did it give?
The TGI was over 100 µM.

What about the TGI [3] of the same compound?
Its TGI is over 100 µM.

What about the TGI [4] of the same compound?
Its TGI is over 100 µM.

And the TGI [5]?
Its TGI is 85.4 µM.

And the TGI [6]?
Its TGI is over 100 µM.

What about the TGI [7] of the same compound?
The TGI was 39.1 µM.

And the TGI [8]?
The TGI was 44 µM.

What about the TGI [9] of the same compound?
The TGI was over 100 µM.

And the TGI [10]?
The TGI was over 100 µM.

And the TGI [11]?
Its TGI is 30.3 µM.

And the TGI [13]?
The TGI was 43.8 µM.

And the TGI [14]?
Its TGI is over 100 µM.

And the TGI [15]?
Its TGI is over 100 µM.

What about the TGI [53] of the same compound?
The TGI was 45.5 µM.

And the TGI [16]?
Its TGI is 39.9 µM.

And the TGI [17]?
Its TGI is 63.9 µM.

And the TGI [18]?
The TGI was 34.8 µM.

And the TGI [20]?
The TGI was over 100 µM.

And the TGI [21]?
The TGI was 15.5 µM.

What about the TGI [22] of the same compound?
Its TGI is 40.7 µM.

And the TGI [23]?
Its TGI is 72.6 µM.

What about the TGI [24] of the same compound?
The TGI was 50.5 µM.

And the TGI [54]?
The TGI was 70 µM.

And the TGI [26]?
Its TGI is over 100 µM.

And the TGI [27]?
Its TGI is 93 µM.

And the TGI [29]?
The TGI was 77.9 µM.

And the TGI [30]?
Its TGI is 89.7 µM.

What about the TGI [32] of the same compound?
The TGI was 73.5 µM.

And the TGI [34]?
The TGI was 49.8 µM.

What about the TGI [35] of the same compound?
Its TGI is over 100 µM.

What about the TGI [36] of the same compound?
Its TGI is 75.6 µM.

And the TGI [38]?
The TGI was 43.2 µM.

What about the TGI [40] of the same compound?
Its TGI is over 100 µM.

And the TGI [41]?
Its TGI is over 100 µM.

What about the TGI [43] of the same compound?
Its TGI is 42.6 µM.

What about the TGI [44] of the same compound?
Its TGI is over 100 µM.

What about the TGI [46] of the same compound?
The TGI was 84 µM.

What about the TGI [47] of the same compound?
The TGI was over 100 µM.

What about the TGI [48] of the same compound?
Its TGI is 31.1 µM.

And the TGI [50]?
Its TGI is 81.2 µM.

What about the TGI [51] of the same compound?
The TGI was 39.8 µM.

What about the TGI [52] of the same compound?
The TGI was 58.9 µM.

For `CCc1ccccc1NC(=O)C1=C(C)NC(C)=C(C(=O)Nc2ccccc2CC)C1c1cccc([N+](=O)[O-])c1`, which TGI [1] is on record?
The TGI was over 100 µM.

And the TGI [2]?
The TGI was 93.8 µM.

And the TGI [3]?
The TGI was over 100 µM.

And the TGI [4]?
Its TGI is over 100 µM.

And the TGI [5]?
The TGI was over 100 µM.

What about the TGI [55] of the same compound?
The TGI was over 100 µM.

And the TGI [6]?
The TGI was over 100 µM.

What about the TGI [7] of the same compound?
The TGI was over 100 µM.

And the TGI [8]?
The TGI was over 100 µM.

What about the TGI [10] of the same compound?
Its TGI is over 100 µM.

And the TGI [11]?
Its TGI is 62 µM.

What about the TGI [56] of the same compound?
The TGI was 88.7 µM.

What about the TGI [15] of the same compound?
The TGI was over 100 µM.

What about the TGI [53] of the same compound?
The TGI was 62.8 µM.

What about the TGI [16] of the same compound?
Its TGI is over 100 µM.

And the TGI [17]?
Its TGI is over 100 µM.

And the TGI [18]?
Its TGI is over 100 µM.

And the TGI [19]?
Its TGI is over 100 µM.

What about the TGI [20] of the same compound?
Its TGI is over 100 µM.

What about the TGI [21] of the same compound?
Its TGI is over 100 µM.

And the TGI [22]?
Its TGI is over 100 µM.

What about the TGI [23] of the same compound?
Its TGI is over 100 µM.

What about the TGI [24] of the same compound?
Its TGI is over 100 µM.

And the TGI [54]?
Its TGI is over 100 µM.

And the TGI [25]?
Its TGI is over 100 µM.

And the TGI [57]?
The TGI was over 100 µM.

And the TGI [26]?
The TGI was over 100 µM.

And the TGI [27]?
Its TGI is over 100 µM.

What about the TGI [28] of the same compound?
The TGI was 97.8 µM.

What about the TGI [29] of the same compound?
Its TGI is over 100 µM.

And the TGI [30]?
The TGI was over 100 µM.

And the TGI [31]?
The TGI was over 100 µM.

What about the TGI [32] of the same compound?
The TGI was over 100 µM.

What about the TGI [33] of the same compound?
Its TGI is over 100 µM.

And the TGI [34]?
The TGI was over 100 µM.

What about the TGI [58] of the same compound?
The TGI was over 100 µM.

What about the TGI [35] of the same compound?
The TGI was over 100 µM.

And the TGI [36]?
Its TGI is over 100 µM.

And the TGI [37]?
The TGI was over 100 µM.

And the TGI [59]?
Its TGI is over 100 µM.

And the TGI [38]?
The TGI was over 100 µM.

What about the TGI [39] of the same compound?
The TGI was over 100 µM.

What about the TGI [40] of the same compound?
Its TGI is over 100 µM.

What about the TGI [41] of the same compound?
Its TGI is over 100 µM.

What about the TGI [42] of the same compound?
The TGI was over 100 µM.

And the TGI [43]?
Its TGI is over 100 µM.

And the TGI [44]?
Its TGI is over 100 µM.

And the TGI [46]?
The TGI was over 100 µM.

And the TGI [47]?
The TGI was over 100 µM.

What about the TGI [48] of the same compound?
Its TGI is over 100 µM.

And the TGI [49]?
The TGI was over 100 µM.

What about the TGI [51] of the same compound?
The TGI was over 100 µM.
